Measurements taken from patent US6013628A, “Method for treating conditions of the eye using polypeptides” (Regents of the University of Minnesota, priority 1995, dated 2000).
No end group written: not given here.

Tests used:
[1] = test system: rabbit conjunctival fibroblasts; experiment: Conjunctival fibroblast proliferation, tritiated thymidine assay; format: cell-based; settings: for Thymidine uptake: day 4, no drug control 8537 cpm
From the text: The failure of gluacoma treatment by filtration surgery is most often caused by scarring. Scarring requires fibroblast proliferation and fibrosis of the subconjunctive space. Proliferation of rabbit conjunctival fibroblasts was studied using the tritiated thymidine assay, which serves as an in vitro model of fibroblast proliferation in the rabbit eye (see Invest. Ophthalmol. Vis. Sci., 31, 1848-1855 (1990)). The ability of synthetic polypeptides derived from ECM molecules to inhibit conjuntival fibroblast proliferation was examined in this model.
Rabbit conjunctival fibroblasts were plated into 96-well microtiter plates at 1000 cells/well in 200 microliters of standard fibroblast culture media. Standard fibroblast culture media include Eagle's minimal essential medium containing 15% fetal bovine serum, penicillin G 100 IU/ml, streptomycin 100 μg/ml, and amphotericin B 0.25 μg/ml. Hep-II was added to the wells in concentrations ranging from 1 μg/ml to 1000 μg/ml after removing an equal volume of media to maintain 200 microliters/well. The peptide was used in concentrations of 1, 3, 7, 10, 25, 50, 100, 200, 300, 400, 500, 600, 800 and 1000 microgram/ml (experiments 1-14, respectively in FIG. 26). The tissue culture plates were incubated at 37° C. in a humidified atmosphere of 5% carbon dioxide. Two separate sets experiments were conducted. Each set of experiments was done in replicates of four. In the first set of experiments, tritiated thymidine was added 22 hours prior to each harvesting on days 4, 5, and 8. In the second set of experiments, tritiated thymidine was added 22 hours prior to each harvesting on days 4, 5, and 6. Wells with vehicle but no test compound served as negative controls (experiment #15) and cells with mitomycin-C at 100 μg/ml served as positive controls (experiment #16).

[2] = test system: rabbit dermal fibroblasts; experiment: Fibroblast-mediated collagen gel contraction (shrinkage) assay; format: cell-based
From the text: As indicated above, proliferative vitreoretinopathy is the result of the proliferation and migration of fibroblasts, retinal pigment epithelial cells, and glial cells, and their organization into vitreous strands and epiretinal membranes. The vitreous strands and epiretinal membranes can contract, resulting in traction retinal detachment. The ability of rabbit dermal fibroblasts to cause contraction was examined in the collagen gel shrinkage model, which serves as an in vitro model of proliferative vitreoretinopathy (see Verdoon et al., Arch. Ophthalmol., 104, 1216-1219 (1986)). The ability of synthetic polypeptides derived from ECM molecules to inhibit contraction in the collagen gel shrinkage model using rabbit fibroblasts was also examined.
Fifty thousand rabbit dermal fibroblasts were suspended in 250 μl of fibroblast assay medium and mixed with 250 μl of Vitrogen and dispensed into the wells of a 48-well plate. The cells were preincubated with the desired polypeptide concentration (25, 50, 100, or 200 ug/ml) for one hour at 37° C. before mixing with the Vitrogen. Gelling occurred within 20 minutes after transfer of the mix of cell suspension and Vitrogen into an incubator at 37° C. with 5% CO2. The gels were overlaid with 250 μl of growth medium. All conditions were tested in duplicate wells. After 24 hours, the gels were detached from the sides of the wells by sweeping with a 27-gauge needle inserted at the interface between the plastic well and the gel (FIGS. 6-8).
Contraction of collagen gels was quantitated by use of planimetry. The gels were observed daily over the seven day period following detachment for evidence of contraction. The plates were photographed at the end of the seven days to record the amount of contraction. The contraction was measured by recording the area of each gel in each well off the photograph using a computer scanner. The area of the gels with polypeptide was compared to the area of the gels without the polypeptide. Planimetry is a two-dimensional measurement. […] The planimetry measurements accordingly underestimate the degree of contraction that actually occurred.
The collagen gels were cast with or without the incorporation of 25 ug/ml of fibronectin. […] These controls using deactivated cells indicate that cell growth and proliferation are required to effect gel shrinkage.

[3] = 3H-heparin; cited from earlier work

What does the source list for “LAGSCLARFSTM [Hep-II, Leu-Ala-Gly-Ser-Cys-Leu-Ala-Arg-Phe-Ser-Thr-Met]”?
Thymidine uptake ([1]; 800 microgram/ml): 580 cpm; Thymidine uptake ([1]; 1000 microgram/ml): 589 cpm; Concentration effective in controlling fibroblast proliferation in vitro ([1]; similar to mitomycin-C): 800-1000 microgram/ml; % Contraction ([2]; 200 ug type IV collagen peptide, cells preincubated 1 hr, gel surface area by planimetry at day 7, no peptide 36%): 3%; Effect on fibroblast-mediated collagen gel contraction ([2]; gels cast with and without fibronectin): most potent inhibitory effects on contraction; Heparin binding [3]: reported to bind heparin
